# Measurements as given in patent US20240173439A1, “FLUORINE-CONTAINING COMPOUND AND CONTRAST MEDIUM” (TDK CORPORATION, priority 2021, published 2024).
# Assay: Measurement of 19F spin-lattice relaxation time (T1) by inversion recovery, 500 MHz NMR
# Type: physicochemical
# Details: 50 mM in CDCl3, 36° C.
# Procedure: (Measurement of ^19F Spin-Lattice Relaxation Time (T1))
# A compound was dissolved in a deuterated chloroform solution at a concentration of 50 mM, and the longitudinal relaxation time (T1) of ^19F nucleus was measured through an inversion recovery method using a 500 MHz NMR device under the conditions shown below.
# Measurement Conditions • NMR device: JNM-ECA500 (manufactured by JEOL) • Measurement temperature: 36° C. • Pulse sequence: double_pulse • relaxation_delay: 10[s] • tau_interval: 4, 3, 2, 1, 0.8, 0.6, 0.4, 0.2, 0.1[s], 80, 60, 40, 20, 10, 8, 6, 4, 2[ms] • Number of times of integration: 16 times
row,Structure (SMILES),T1 (19F spin-lattice relaxation time) [s]
1,"CC1(C)CC(OCCCCOC(C(F)(F)F)(C(F)(F)F)C(F)(F)F)CC(C)(C)N1[O] [Compound 11, 4-(4-((1,1,1,3,3,3-hexafluoro-2-(trifluoromethyl)propane-2-yl)oxy)butoxy)-2,2,6,6-tetra methylpiperidine-1-oxyl]",0.134
2,CC1(C)CC(OCCOC(C(F)(F)F)(C(F)(F)F)C(F)(F)F)CC(C)(C)N1[O] [Compound 12],0.121
3,CC1(C)CC(OCCC(F)(F)F)CC(C)(C)N1[O] [Compound 13],0.105
4,CC1(C)CC(OCCCC(F)(F)F)CC(C)(C)N1[O] [Compound 14],0.117
5,"CC1(C)CC(OC(C(F)(F)F)(C(F)(F)F)C(F)(F)F)CC(C)(C)N1[O] [Compound 15, 4-((1,1,1,3,3,3-hexafluoro-2-(trifluoromethyl)propane-2-yl)oxy)-2,2,6,6-tetramethylpiper idine-1-oxyl]",0.094
6,CC1(C)CC(OC(C(F)(F)F)C(F)(F)F)CC(C)(C)N1[O] [Compound 16],0.096
7,CC1(C)CC(OCC(F)(F)F)CC(C)(C)N1[O] [Compound 17],0.101
8,CC1(C)CC(Oc2ccccc2C(F)(F)F)CC(C)(C)N1[O] [Compound 18],0.098
9,CC1(C)CC(Oc2cccc(C(F)(F)F)c2)CC(C)(C)N1[O] [Compound 19],0.110
10,CC1(C)CC(Oc2cc(C(F)(F)F)cc(C(F)(F)F)c2)CC(C)(C)N1[O] [Compound 20],0.108
11,CC1(C)CC(Oc2ccc(C(F)(F)F)cc2)CC(C)(C)N1[O] [Compound 21],0.123
12,"CCC1(CC)CC(OCCCCOC(C(F)(F)F)(C(F)(F)F)C(F)(F)F)CC(CC)(CC)N1[O] [Compound 22, 4-(4-((1,1,1,3,3,3-hexafluoro-2-(trifluoromethyl)propane-2-yl)oxy)butoxy)-2,2,6,6-tetraet hylpiperidine-1-oxyl]",0.130
13,CCC1(CC)CC(OCCOC(C(F)(F)F)(C(F)(F)F)C(F)(F)F)CC(CC)(CC)N1[O] [Compound 23],0.118
14,"CC1(C)CC(OC(C(F)(F)F)(C(F)(F)F)C(F)(F)F)CC(C)(C)N1[O] [Compound 24, 4-((1,1,1,3,3,3-hexafluoro-2-(trifluoromethyl)propane-2-yl)oxy)-2,2,6,6-tetramethylpiperidine-1-oxyl]",0.092
15,"CCC1(CC)CC(OCCCCOC(C(F)(F)F)(C(F)(F)F)C(F)(F)F)CC(C)(C)N1[O] (stereo not shown) [Compound 25, 4-(4-((1,1,1,3,3,3-hexafluoro-2-(trifluoromethyl)propane-2-yl)oxy)butoxy)-2,2-diethyl-6,6-dimethylpiperidine-1-oxyl]",0.127
16,"CC1(C)CC(OCCCCOC(C(F)(F)F)C(F)(F)F)CC(C)(C)N1[O] [Compound 26, 4-(4-((1,1,1,3,3,3-hexafluoropropane-2-yl)oxy)butoxy)-2,2,6,6-tetramethylpiperidine-1-o xyl]",0.130
17,"CC1(C)CC(OCCCCCCCCOC(C(F)(F)F)(C(F)(F)F)C(F)(F)F)CC(C)(C)N1[O] [Compound 27, 4-((8-((1,1,1,3,3,3-hexafluoro-2-(trifluoromethyl)propane-2-yl)oxy)octyl)oxy)-2,2,6,6-tet ramethylpiperidine-1-oxyl]",0.130
18,CC1(C)CC(OCCCCCCCCCCCCOC(C(F)(F)F)(C(F)(F)F)C(F)(F)F)CC(C)(C)N1[O] [Compound 28],0.214
19,CC1(C)CC(OCCCCCCCCCCCCCCCCOC(C(F)(F)F)(C(F)(F)F)C(F)(F)F)CC(C)(C)N1[O] [Compound 29],0.284
